Measurements taken from patent US11712434B2, “Compound having anti-cancer effect, and preparation method therefor and use thereof” (3D MEDICINES (BEIJING) CO., LTD., priority 2016, dated 2023).

How the values were obtained:
[1] = system: NCI-H1648; assay: Cell proliferation assay (Alamar Blue); assay type: cell-based; conditions: Homo sapiens, 144 h; NCI-H1648 tumor cell line; 6 days culture
Experimental: (§1) 1. Instruments and Materials • Thermo 311 CO2 incubator; Haier biosafety cabinet; Molecular Devices microplate reader; Xiangyi brand L530 desktop low speed centrifuge; Olympus IX51 inverted fluorescence microscope, DMEM, RPMI 1640, MEM, DMEM/F12 1:1 medium, Fetal bovine serum, 0.25% trypsin solution, phosphate buffer (Thermo Fisher Shanghai Co., Ltd.); sigma dimethyl sulfoxide (DMSO), resazurin; 54 commercial tumor cell lines (including 26 liver cancer cell lines). Experimental drugs: compounds 1-12 and active drug Linifanib; chemotherapeutic drug Doxorubicin (HY-15142; Shanghai Qianyuan Biomedical Technology Co., Ltd.).
(§2) 2. Experimental Methods • 2.1 Cultivation of Different Cell Lines • 54 cell lines were cultured in a culture medium containing fetal bovine serum and placed in a 5% CO2 incubator at 37° C. for incubation. The cells were all grown in an adherent state, and the growth was observed under an inverted microscope, and subculture was performed when the cell confluence rate reached 80%-90%. The proportion and quantity of passage were determined by experimental needs. The ratio of subculture of this cell line was generally 1:2^˜1:3. • 2.2 Inhibition Effect on the Proliferation of Different Tumor Cell Lines • Cell test: 54 cell lines in logarithmic growth phase were inoculated in 96-well culture plates at 500^˜1×10^4/well (the optimal seeding density of each cell line was determined in pre-experiment), After incubating at 37° C. for 4 h in a 5% CO2 humidification incubator, added 10 μL of compounds 1-12 or Linifanib to each well, and tested 9 drug concentration gradients for each compound (diluted from the highest concentration of the test by 3.16 times). The solubility of each compound was different at a starting concentration of 100 or 30 μM, respectively. The QC reference compound Doxorubicin was added simultaneously to each cell line test, and the final drug concentrations were 10, 3.16, 1, 0.31, 0.1, 0.03, 0.01, 0.003, and 0.001 μM, respectively. In addition, a positive control group (100% inhibition) and a negative control group (0% inhibition) were set at the same time. The drug group was repeated for 2 wells per concentration, and the positive control group and the negative control group were repeated for 6 wells. After the culture was continued for 6 days in the incubator, AlamarBlue test operation was followed; • AlamarBlue test procedure: Incubated with 10 μL of AlamarBlue reagent per well for 1-4 h, shook for 1-2 min, MD microplate reader EX: 560 nm, EM: 590 nm wavelength to measure fluorescence, recorded the results, calculated the cell inhibition rate of the compound of the invention. Cell inhibition rate (%)=(A0% inhibition−A administration)/(A0% inhibition−A100% inhibition)×100%, and then using the method of nonlinear regression using GraphPad Prism 5.0 or MATILAB software (usually using four parameters) to graph and obtain a drug dose response curve to obtain an IC50 value of the compound of the present invention acting on a cancer cell line.

[2] = system: NCI-H1703; assay: Cell proliferation assay (Alamar Blue); assay type: cell-based; conditions: Homo sapiens, 144 h; NCI-H1703 (lung cancer cells); 6 days culture
Experimental: as §1, §2

[3] = system: NCI-H2170; assay: Cell proliferation assay (Alamar Blue); assay type: cell-based; conditions: Homo sapiens, 144 h; NCI-H2170 tumor cell line; 6 days culture
Experimental: as §1, §2

[4] = system: NCI-H526; assay: Cell proliferation assay (Alamar Blue); assay type: cell-based; conditions: Homo sapiens, 144 h; NCI-H526 tumor cell line; 6 days culture
Experimental: as §1, §2

[5] = system: NCI-H661; assay: Cell proliferation assay (Alamar Blue); assay type: cell-based; conditions: Homo sapiens, 144 h; NCI-H661 tumor cell line; 6 days culture
Experimental: as §1, §2

[6] = system: NCI-H716; assay: Cell proliferation assay (Alamar Blue); assay type: cell-based; conditions: Homo sapiens, 144 h; NCI-H716 tumor cell line; 6 days culture
Experimental: as §1, §2

[7] = system: liver cancer; conditions: liver cancer patients, phase III; cited from earlier work

Q: Which IC50 [1] does the source give for `Cc1ccc(F)c(NC(=O)Nc2ccc(-c3cccc4[nH]nc(N)c34)cc2)c1` [Linifanib, reference compound] here?
A: 7.17 µM

Q: What about the IC50 [2] of the same compound?
A: 0.02 µM

Q: And the IC50 [3]?
A: 4 µM

Q: And the IC50 [4]?
A: 7.8 µM

Q: And the IC50 [5]?
A: 13.3 µM

Q: What about the IC50 [6] of the same compound?
A: 4.1 µM

Q: And the “toxicity and side effects” value [7]?
A: greater than Sorafenib

Q: What does the source list for `CNC(=O)c1cc(Oc2ccc(NC(=O)Nc3ccc(Cl)c(C(F)(F)F)c3)cc2)ccn1` [Sorafenib]?
A: ORR (overall response rate) [7]: 6.9%; TTP (time to progression) [7]: 4.0 months
